Some test systems named below: KM12; HOP-62; A549; CCRF-CEM; Malme-3M; EKVX; NCI-H522; LOX IMVI; SNB-75; HCC 2998; SN12C; M14; K562; A498; 786-0; HCT-116; ACHN; SK-MEL-28; OVCAR-4; OVCAR-8.
What all share (test): inhibition of tumour cell growth, NCI panel, 48 h

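Briefly, cells in 96-well plates were exposed to five compound concentrations for 48 h, and endpoints were estimated by linear interpolation. GI50: concentration for 50% inhibition of growth.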 Calls of active or inactive are those of the source. No stated cut-off is given here; in the data, active = GI50 up to about 1.1 µM and inactive = higher.

With `Cc1c(OC(C)C(=O)O)ccc2c(-c3ccccc3)cc(=O)oc12` (stereo not drawn), the GI50 in the assay on KM12, in the assay with HOP-62, with A549, in the assay on CCRF-CEM, in the assay on Malme-3M and in the assay with EKVX was > 100 µM (inactive) in each case. Also, the GI50 with NCI-H522, with LOX IMVI, with SNB-75, in the assay on HCC 2998, in the assay with SN12C and in the assay on M14 was > 100 µM (inactive) in each case. For the same compound, the GI50 in the assay with K562, in the assay on A498, in the assay with 786-0, with HCT-116, with ACHN and in the assay on SK-MEL-28 was > 100 µM (inactive) each time. Also, the GI50 with OVCAR-4 and in the assay on OVCAR-8 was > 100 µM (inactive) in each case.

As to `ON(Cc1ccccc1)C(=S)c1ccccc1`, the GI50 with KM12 is 4.76 µM (inactive); in the assay on HOP-62, 4.85 µM (inactive); with A549 it was 4.35 µM (inactive); in the assay on CCRF-CEM, 0.342 µM (active); in the assay with Malme-3M it was 25.4 µM (inactive); with EKVX it was 7.23 µM (inactive). The GI50 with NCI-H522 is 0.482 µM (active); in the assay with LOX IMVI, 2.24 µM (inactive); in the assay with SNB-75, 19 µM (inactive); in the assay on HCC 2998, 7.24 µM (inactive); in the assay with SN12C it was 8.41 µM (inactive); with M14 it was 5.21 µM (inactive). For the same compound, the GI50 in the assay on K562 was 3.27 µM (inactive); in the assay with A498 it was 25.3 µM (inactive); in the assay with 786-0 it was 4.82 µM (inactive); with HCT-116, 3.4 µM (inactive); in the assay on ACHN it was 4.21 µM (inactive); in the assay with SK-MEL-28, 11.4 µM (inactive). The GI50 in the assay with OVCAR-4 is 2.61 µM (inactive); in the assay with OVCAR-8, 3.46 µM (inactive).

Regarding `COc1cc(C(C)c2cc3c(cc2OCCOCCOc2cc4c(cc2C(C)c2cc(OC)c(OC)c(OC)c2)OCO4)OCO3)cc(OC)c1OC` (stereo not drawn), the GI50 in the assay with KM12, in the assay on HOP-62, in the assay on A549, in the assay with CCRF-CEM, in the assay with Malme-3M and with EKVX was > 10 µM (inactive) throughout. For the same compound, the GI50 in the assay on NCI-H522 is > 10 µM (inactive); with LOX IMVI, > 10 µM (inactive); in the assay with SNB-75 it was 19.1 µM (inactive); in the assay on HCC 2998, > 10 µM (inactive); in the assay on SN12C, > 10 µM (inactive); in the assay on M14, > 10 µM (inactive). In addition, the GI50 with K562 was 36.1 µM (inactive); in the assay with A498, > 10 µM (inactive); with 786-0, > 10 µM (inactive); with HCT-116 it was > 10 µM (inactive); in the assay with ACHN it was > 10 µM (inactive); in the assay with SK-MEL-28, > 10 µM (inactive). Also, the GI50 with OVCAR-4 and in the assay on OVCAR-8 was > 10 µM (inactive) in each case.

Consider `Brc1cc(CCOC2CCCCO2)c(-c2sccc2CCOC2CCCCO2)s1` (stereo not drawn), for which the GI50 is 27 µM (inactive) with KM12; 63.2 µM (inactive) in the assay with HOP-62; 24.8 µM (inactive) in the assay with A549; 19.9 µM (inactive) in the assay with CCRF-CEM; 24.9 µM (inactive) with Malme-3M; 47.6 µM (inactive) with EKVX. Moreover, the GI50 in the assay on NCI-H522 was 14.4 µM (inactive); in the assay with LOX IMVI, 26.3 µM (inactive); with SNB-75, 43.5 µM (inactive); in the assay on HCC 2998, 31.9 µM (inactive); with SN12C, > 100 µM (inactive); in the assay with M14 it was 31.8 µM (inactive). Further, the GI50 in the assay with K562 was 13.8 µM (inactive); in the assay with A498 it was > 69 µM (inactive); in the assay with 786-0 it was 35.1 µM (inactive); in the assay on HCT-116, 23.2 µM (inactive); with ACHN, 50.8 µM (inactive); in the assay on SK-MEL-28 it was > 95.1 µM (inactive). The GI50 is 48 µM (inactive) with OVCAR-4 and 45.5 µM (inactive) with OVCAR-8.

Consider `O=C(Cc1ccccc1)N/N=C(/c1nc2ccc([N+](=O)[O-])cc2nc1O)C(O)c1ccccc1Cl` (stereo not drawn), for which the GI50 was 79.3 µM (inactive) with KM12; > 100 µM (inactive) in the assay with HOP-62; 80.2 µM (inactive) in the assay with A549; > 100 µM (inactive) in the assay with CCRF-CEM; > 100 µM (inactive) with Malme-3M; > 100 µM (inactive) in the assay on EKVX. The GI50 in the assay with NCI-H522 was 6.28 µM (inactive); in the assay with LOX IMVI, > 100 µM (inactive); in the assay with SNB-75, > 100 µM (inactive); in the assay with HCC 2998 it was 54 µM (inactive); in the assay with SN12C, > 100 µM (inactive); in the assay with M14, 60.8 µM (inactive). In addition, the GI50 is > 100 µM (inactive) in the assay on K562; > 100 µM (inactive) in the assay with A498; > 100 µM (inactive) in the assay on 786-0; > 100 µM (inactive) in the assay on HCT-116; 56.6 µM (inactive) in the assay with ACHN; > 100 µM (inactive) in the assay on SK-MEL-28. Besides, the GI50 in the assay with OVCAR-4 and in the assay with OVCAR-8 was > 100 µM (inactive) throughout.

For the compound `CCCCCCCc1cscc1-c1cscc1Br`, the GI50 in the assay with KM12 is 27.2 µM (inactive); with HOP-62, 57.4 µM (inactive); in the assay on A549, 27.2 µM (inactive); with CCRF-CEM it was 18.2 µM (inactive); with Malme-3M, 42.1 µM (inactive); in the assay on EKVX, 56.1 µM (inactive). Moreover, the GI50 in the assay with NCI-H522 is 21.4 µM (inactive); in the assay with LOX IMVI, 20.1 µM (inactive); in the assay with SNB-75, 25.8 µM (inactive); in the assay with HCC 2998, 27.7 µM (inactive); in the assay with SN12C, 69.5 µM (inactive); in the assay with M14, 31.9 µM (inactive). Further, the GI50 is 53.1 µM (inactive) with K562; 86.7 µM (inactive) in the assay with A498; 57 µM (inactive) with 786-0; 32.7 µM (inactive) in the assay with HCT-116; 33.5 µM (inactive) in the assay on ACHN; 88.9 µM (inactive) with SK-MEL-28. For the same compound, the GI50 was 33.7 µM (inactive) in the assay on OVCAR-4 and 52 µM (inactive) in the assay with OVCAR-8.

In the case of `CC(C)C1=C(O)C(=O)C2=C(C1=O)C(OC=O)C(O)C1C(C)(C)CCCC21C` (stereo not drawn), the GI50 is 12 µM (inactive) with KM12; 37.6 µM (inactive) in the assay on HOP-62; 14.7 µM (inactive) with A549; 3.27 µM (inactive) in the assay on CCRF-CEM; 7.08 µM (inactive) in the assay on Malme-3M; 10.1 µM (inactive) with EKVX. Further, the GI50 with NCI-H522 is 10.8 µM (inactive); in the assay with LOX IMVI, 3.33 µM (inactive); in the assay with SNB-75 it was 10.8 µM (inactive); in the assay on HCC 2998, 6.82 µM (inactive); with SN12C, 10.1 µM (inactive); in the assay on M14, 11.9 µM (inactive). Also, the GI50 was 6.35 µM (inactive) with K562; 14.8 µM (inactive) in the assay on A498; 4.09 µM (inactive) with 786-0; 7.73 µM (inactive) in the assay with HCT-116; 3.87 µM (inactive) with ACHN; 3.13 µM (inactive) with SK-MEL-28. The GI50 in the assay with OVCAR-4 is 10.2 µM (inactive); in the assay on OVCAR-8, 7.29 µM (inactive).

Take `O=c1oc2ccc(-n3c(=O)c4ccccc4c4ccccc4c3=O)cc2c2ccccc12`: the GI50 with KM12, in the assay with HOP-62, in the assay with A549, in the assay with CCRF-CEM, in the assay with Malme-3M and in the assay with EKVX was > 100 µM (inactive) throughout. For the same compound, the GI50 in the assay with NCI-H522 is > 100 µM (inactive); in the assay on LOX IMVI, > 100 µM (inactive); in the assay with SNB-75, 27 µM (inactive); with HCC 2998, > 100 µM (inactive); in the assay with SN12C, > 100 µM (inactive); with M14, > 100 µM (inactive). The GI50 in the assay on K562 was > 100 µM (inactive); with A498 it was > 100 µM (inactive); with 786-0, 66.2 µM (inactive); in the assay with HCT-116, > 100 µM (inactive); in the assay with ACHN, > 100 µM (inactive); in the assay on SK-MEL-28, > 100 µM (inactive). For the same compound, the GI50 with OVCAR-4 and in the assay with OVCAR-8 was > 100 µM (inactive) each time.

With `COC1=CC(=O)[C@@]2(C)C(C)[C@H](c3ccccc3)[C@H]2C1=O` (stereo partly drawn), the GI50 in the assay on KM12, in the assay with HOP-62, with A549, in the assay with CCRF-CEM, in the assay on Malme-3M and in the assay on EKVX was > 100 µM (inactive) each time. In addition, the GI50 in the assay with NCI-H522, in the assay with LOX IMVI, with SNB-75, in the assay on HCC 2998, in the assay on M14 and in the assay on K562 was > 100 µM (inactive) throughout. In addition, the GI50 in the assay with A498, in the assay on 786-0, with ACHN, in the assay with SK-MEL-28, with OVCAR-4 and with OVCAR-8 was > 100 µM (inactive) each time.

On to `S=C=NCCc1ccccc1` [PHENETHYLISOTHIOCYANATE], for which the GI50 in the assay on KM12 is 0.239 µM (active); in the assay on HOP-62 it was 0.371 µM (active); in the assay on A549, 2.39 µM (inactive); in the assay with CCRF-CEM it was 0.186 µM (active); in the assay with Malme-3M it was 0.964 µM (active); in the assay on EKVX, 16.8 µM (inactive). Besides, the GI50 with NCI-H522 was 0.193 µM (active); with LOX IMVI it was 0.194 µM (active); in the assay on SNB-75, 2.65 µM (inactive); in the assay with HCC 2998 it was 0.412 µM (active); with SN12C, 0.319 µM (active); with M14, 0.46 µM (active). In addition, the GI50 in the assay on K562 is 0.226 µM (active); in the assay with A498, 0.431 µM (active); in the assay with 786-0, 0.188 µM (active); in the assay on HCT-116, 0.453 µM (active); in the assay with ACHN, 1.56 µM (inactive); with SK-MEL-28, 0.71 µM (active). Besides, the GI50 in the assay on OVCAR-4 is 2.14 µM (inactive); in the assay on OVCAR-8 it was 1.33 µM (inactive).
